Experimental findings from patent US11142527B2, “Dihydropyrimidine compounds and uses thereof in medicine” (SUNSHINE LAKE PHARMA CO., LTD., priority 2017, dated 2021) are described below.

For the test, the system named is HBV. Description: Test of anti HBV activity in vitro (viral DNA by qPCR). The class given is cell-based. The conditions noted are these: Hepatitis B virus; HepG2.2.15 cells, viral DNA in cell culture supernatant by qPCR; read-out: EC50 values of the compound of the invention on viral replication. The method, then:
Test 1: Test Method of Calculating Anti HBV EC50
HBV Cell Line and Culture Conditions
HepG2.2.15 (SELLS, PNAS, 1987 and SELLS, JV, 1988) chromosomes have an integrated complete HBV genome, and stably express viral RNA and viral protein. HepG2.2.15 cells can secrete mature HBV particles, HBsAg and HBeAg, to medium. HepG2.2.15 cells were cultured in DMEM containing 10% fetal bovine serum, 100 U/mL penicillin, 100 U/mL streptomycin, 1% non essential amino acid, 1 mM sodium pyruvate and 300 μg/mL G418.
Viral particles DNA secreted from HepG2.2.15 cells can be quantified by qPCR, and the effect of the compound on viral replication can be detected.
Test of Anti HBV Activity In Vitro
8000 HepG 2.2.15 cells per well were seeded into a 96-well plate, the plate was cultured at 37° C. and 5% CO2 for 3 days till the cells grew to full wells. Old liquid medium can be removed and replaced with new medium (200 μL) on day 0.
Formulating the compound and treating the cells in the experiment of anti virus: the compound was dissolved in DMSO to a concentration of 30 mM, and then the compound solution was diluted with DMSO to a concentration of 800 μM, and then eight dilutions at 4 fold were performed, the highest concentration is 800 μM. The serial diluted compound was added to the above plate at 1 μL per well, the highest final concentration in the experiment is 4 μM (200 fold dilution). TDF (tenofovir dipiroxil fumarate, Selleck, Cat S1400) has a highest concentration of 4 μM as a positive control. 1 μL of DMSO was added in to the […] at a final concentration of 0.5%, TDF was added in to the […] at a final concentration of 1 μM.
Detection of Viral Genomic DNA by aPCR
Primer: HBV-For-202, […]; HBV-Rev-315, […]. Copies of virus can be calculated using a standard curve plotted by using plasmid containing HBV genome and using SYBR Premix Ex Taq II—Takara DRR081S kit and 1 μL cell culture supernatant as a template. EC50 values of the compound on viral replication were calculated by a four parametric nonlinear regression model using Graphpad Prism 5 software to manage concentration—viral copy number.
Background: Real-time PCR tracks product formation cycle by cycle.
As to `COC(=O)C1=C(CN2CCN3C(=O)N(CC#Cc4ccc(C(N)=O)cc4)C[C@@H]3C2)NC(c2nccs2)=N[C@H]1c1ccc(F)cc1Cl` [Example 39, (R)-methyl 6-(((S)-2-(3-(4-carbamoylphenyl)prop-2-yn-1-yl)-3-oxohexahydroimidazo[1,5-a]pyrazin-7(1H)-yl)methyl)-4-(2-chloro-4-fluorophenyl)-2-(thiazol-2-yl)-1,4-dihydropyrimidine-5-carboxylate], the half-maximal effective concentration (EC50) (commonly the concentration at which the effect is half-maximal) was determined as 6.6 nM.

Regarding `COC(=O)C1=C(CN2CCN3C(=O)N(c4ccc(-c5nc(C6CCCCC6)c[nH]5)cc4)C[C@@H]3C2)NC(c2nccs2)=N[C@H]1c1ccc(F)cc1Cl` [Example 110, (R)-methyl 4-(2-chloro-4-fluorophenyl)-6-(((S)-2-(4-(5-cyclohexyl-1H-imidazol-2-yl)phenyl)-3-oxohexahydroimidazo[1,5-a]pyrazin-7(1H)-yl)methyl)-2-(thiazol-2-yl)-1,4-dihydropyrimidine-5-carboxylate], the 50% effective concentration (EC50) was 30.5 nM.

Consider `COC(=O)C1=C(CN2CCN3C(=O)N(c4ccc5[nH]c(C6CCCN6C)nc5c4)C[C@@H]3C2)NC(c2nccs2)=N[C@H]1c1ccc(F)cc1Cl` (stereo partly drawn) [Example 108, (4R)-methyl 4-(2-chloro-4-fluorophenyl)-6-(((8aS)-2-(2-(1-methylpyrrolidin-2-yl)-1H-benzo[d]imidazol-5-yl)-3-oxohexahydroimidazo[1,5-a]pyrazin-7(1H)-yl)methyl)-2-(thiazol-2-yl)-1,4-dihydropyrimidine-5-carboxylate], for which the EC50 stood at 6.8 nM.

In the case of `COC(=O)C1=C(CN2CCN3C(=O)N(c4ccc(C5(C(=O)O)CC5)cc4)C[C@@H]3C2)NC(c2nccs2)=N[C@H]1c1ccc(F)cc1Cl` [Example 27, 1-(4-((S)-7-(((R)-6-(2-chloro-4-fluorophenyl)-5-(methoxycarbonyl)-2-(thiazol-2-yl)-3,6-dihydropyrimidin-4-yl)methyl)-3-oxohexahydroimidazo[1,5-a]pyrazin-2(3H)-yl)phenyl)cyclopropane carboxylic acid], the EC50 came out at 10 nM.

As for `COC(=O)C1=C(CN2CCN3C(=O)N(c4cc(F)cc(N5CCO[C@H](CCC(=O)O)C5)c4)C[C@@H]3C2)NC(c2nccs2)=N[C@H]1c1ccc(F)cc1Cl` [Example 131, 3-((R)-4-(3-((S)-7-(((R)-6-(2-chloro-4-fluorophenyl)-5-(methoxycarbonyl)-2-(thiazol-2-yl)-3,6-dihydropyrimidin-4-yl)methyl)-3-oxohexahydroimidazo[1,5-a]pyrazin-2(3H)-yl)5-fluorophenyl)morpholin-2-yl)propanoic acid], the EC50 was 8.6 nM.

For the compound `COC(=O)C1=C(CN2CCN3C(=O)N(c4nc(-c5ccc(CC(=O)O)cc5)cs4)C[C@@H]3C2)NC(c2nccs2)=N[C@H]1c1ccc(F)cc1Cl` [Example 134, 2-(4-(2-((S)-7-(((R)-6-(2-chloro-4-fluorophenyl)-5-(methoxycarbonyl)-2-(thiazol-2-yl)-3,6-dihydropyrimidin-4-yl)methyl)-3-oxohexahydroimidazo[1,5-a]pyrazin-2(3H)-yl)thiazol-4-yl)phenyl)acetic acid], the concentration giving a half-maximal response (EC50) was found to be 4 nM.

For `COC(=O)C1=C(CN2CCN3C(=O)N(c4ccc(-c5cnc(C)[nH]5)cc4)C[C@@H]3C2)NC(c2nccs2)=N[C@H]1c1ccc(F)cc1Cl` [Example 107, (R)-methyl 4-(2-chloro-4-fluorophenyl)-6-(((S)-2-(4-(2-methyl-1H-imidazol-5-yl)phenyl)-3-oxohexahydroimidazo[1,5-a]pyrazin-7(1H)-yl)methyl)-2-(thiazol-2-yl)-1,4-dihydropyrimidine-5-carboxylate], the concentration giving a half-maximal response (EC50) turned out to be 6.5 nM.

Turning to `COC(=O)C1=C(CN2CCN3C(=O)N(c4ccc(Oc5cccc(C(=O)O)c5)cn4)C[C@@H]3C2)NC(c2nccs2)=N[C@H]1c1ccc(F)cc1Cl` [Example 16, 3-((6-((S)-7-(((R)-6-(2-chloro-4-fluorophenyl)-5-(methoxycarbonyl)-2-(thiazol-2-yl)-3,6-dihydropyrimidin-4-yl)methyl)-3-oxohexahydroimidazo[1,5-a]pyrazin-2(3H)-yl)pyridin-3-yl)oxy)benzoic acid], the EC50 is 12 nM.

On to `COC(=O)C1=C(CN2CCN3C(=O)N(CC#Cc4ccc(C(=O)O)cc4OC)C[C@@H]3C2)NC(c2nccs2)=N[C@H]1c1ccc(F)cc1Cl` [Example 53, 4-(3-((S)-7-(((R)-6-(2-chloro-4-fluorophenyl)-5-(methoxycarbonyl)-2-(thiazol-2-yl)-3,6-dihydropyrimidin-4-yl)methyl)-3-oxohexahydroimidazo[1,5-a]pyrazin-2(3H)-yl)prop-1-yn-1-yl)-3-methoxybenzoic acid], for which the EC50 was determined as 34.1 nM.

As to `COC(=O)C1=C(CN2CCN3C(=O)N(c4cc(F)cc(Oc5ccc(C(=O)O)cc5F)c4)C[C@@H]3C2)NC(c2nccs2)=N[C@H]1c1ccc(F)cc1Cl` [Example 13, 4-(3-((S)-7-(((R)-6-(2-chloro-4-fluorophenyl)-5-(methoxycarbonyl)-2-(thiazol-2-yl)-3,6-dihydropyrimidin-4-yl)methyl)-3-oxohexahydroimidazo[1,5-a]pyrazin-2(3H)-yl)-5-fluorophenoxy)-3-fluorobenzoic acid], the EC50 was 22.1 nM.

Take `COC(=O)C1=C(CN2CCN3C(=O)N(c4ccc(Oc5ccc(C(=O)O)cc5)nc4)C[C@@H]3C2)NC(c2nccs2)=N[C@H]1c1ccc(F)cc1Cl` [Example 7, 4-((5-((S)-7-(((R)-6-(2-chloro-4-fluorophenyl)-5-(methoxycarbonyl)-2-(thiazol-2-yl)-3,6-dihydropyrimidin-4-yl)methyl)-3-oxohexahydroimidazo[1,5-a]pyrazin-2(3H)-yl)pyridin-2-yl)oxy)benzoic acid]: the EC50 is 8.78 nM.

With `CCc1c[nH]c(-c2ccc(N3C[C@@H]4CN(CC5=C(C(=O)OC)[C@H](c6ccc(F)cc6Cl)N=C(c6nccs6)N5)CCN4C3=O)cc2)n1` [Example 109, (R)-methyl 4-(2-chloro-4-fluorophenyl)-6-(((S)-2-(4-(4-ethyl-1H-imidazol-2-yl)phenyl)-3-oxohexahydroimidazo[1,5-a]pyrazin-7(1H)-yl)methyl)-2-(thiazol-2-yl)-1,4-dihydropyrimidine-5-carboxylate], the EC50 was 12.4 nM.

Consider `COC(=O)C1=C(CN2CCN3C(=O)N(c4ccc(C5(C(=O)O)CCCCC5)cc4)C[C@@H]3C2)NC(c2nccs2)=N[C@H]1c1ccc(F)cc1Cl` [Example 30, 1-(4-((S)-7-(((R)-6-(2-chloro-4-fluorophenyl)-5-(methoxycarbonyl)-2-(thiazol-2-yl)-3,6-dihydropyrimidin-4-yl)methyl)-3-oxohexahydroimidazo[1,5-a]pyrazin-2(3H)-yl)phenyl) cyclohexanecarboxylic acid], for which the EC50 stood at 9 nM.

With `COC(=O)C1=C(CN2CCN3C(=O)N(c4ccc(Oc5ccc(C(=O)O)cn5)cc4)C[C@@H]3C2)NC(c2nccs2)=N[C@H]1c1ccc(F)cc1Cl` [Example 78, 6-(4-((S)-7-(((R)-6-(2-chloro-4-fluorophenyl)-5-(methoxycarbonyl)-2-(thiazol-2-yl)-3,6-dihydropyrimidin-4-yl)methyl)-3-oxohexahydroimidazo[1,5-a]pyrazin-2(3H)-yl)phenoxy)nicotinic acid], the EC50 came out at 38.7 nM.

Turning to `COC(=O)C1=C(CN2CCN3C(=O)N(c4ccc(C5(C(=O)O)CCC5)cc4)C[C@@H]3C2)NC(c2nccs2)=N[C@H]1c1ccc(F)cc1Cl` [Example 28, 1-(4-((S)-7-(((R)-6-(2-chloro-4-fluorophenyl)-5-(methoxycarbonyl)-2-(thiazol-2-yl)-3,6-dihydropyrimidin-4-yl)methyl)-3-oxohexahydroimidazo[1,5-a]pyrazin-2(3H)-yl)phenyl)cyclobutane carboxylic acid], the EC50 came out at 4 nM.

In the case of `COC(=O)C1=C(CN2CCN3C(=O)N(Cc4ccc(-c5ccc(C(=O)O)cc5)cc4)C[C@@H]3C2)NC(c2nccs2)=N[C@H]1c1ccc(F)cc1Cl` [Example 10, 4′-(((S)-7-(((R)-6-(2-chloro-4-fluorophenyl)-5-(methoxycarbonyl)-2-(thiazol-2-yl)-3,6-dihydroprimidin-4-yl)methyl)-3-oxohexahydroimidazo[1,5-a]pyrazin-2(3H)-yl)methyl)-[1, 1′-diphenyl]-4-carboxylic acid], the EC50 amounted to 19.9 nM.

Take `COC(=O)C1=C(CN2CCN3C(=O)N(c4nc(-c5ccc(C(=O)O)cc5)cs4)C[C@@H]3C2)NC(c2nccs2)=N[C@H]1c1ccc(F)cc1Cl` [Example 15, 4-(2-((S)-7-(((R)-6-(2-chloro-4-fluorophenyl)-5-(methoxycarbonyl)-2-(thiazol-2-yl)-3,6-dihydropyrimidin-4-yl)methyl)-3-oxohexahydroimidazo[1,5-a]pyrazin-2(3H)-yl)thiazol-4-yl)benzoic acid]: the EC50 stood at 10.8 nM.
